Experimental data reported in US6313177A, “D-mannitol derivatives as HIV aspartyl protease inhibitors” (Pharmacor Inc., priority 1999, dated 2001).
pKi: −log10 of the molar value.

Columns and labels:
[1] = Cytotoxicity (MTT assay / trypan blue exclusion test); format: cell-based; conditions: 7 or 10 days, 37° C., measure (IC50/CC50) not stated
Description: Two assays were performed to evaluate the potentiel toxicity of the compounds in infected cells:
1) Briefly, cells were grown in 96-well microtiter plates at 37° C. in complete culture medium in the presence of the compound to test. Control cells grown in the absence of the compound received the same amount of solvent used to dissolve the inhibitor (in this case, dimethylsulfoxide at a final concentration of 0.1 to 0.3%). After 7 or 10 days, MTT was added to the cultures for 4 hours at 37° C. as described in the literature (Schwartz et al., AIDS Res. Hum. Retrov. 4: 441-448, 1988; Mosmaun, J. Immunol. Meth., 65: 55-63, 1983) and the changes in absorbance associated with metabolism of MTT by viable cells was monitored with an ELISA microplate reader at a test wavelength of 540 nm.
2) The cells were grown as described above in 24-well microplates or 25-cm tissue culture flasks in the presence or absence of the tested compounds, and the cell viability after 7 or 10 days was determined by the trypan blue exclusion test, using a hemacytometer and a microscope at 100× magnification.

[2] = target: T1, recombinant HIV-1 protease (Human immunodeficiency virus type 1 group M subtype B, UniProt P04585); test: Fluorometric (FRET) enzymatic assay for the inhibition constant (Ki) against the HIV protease; format: biochemical
T1 construct: recombinant HIV-1 protease; purchased Bachem Bioscience

- pKi [2]: 5.70
SMILES: O[C@@H]([C@H](O)[C@@H](COCc1ccccc1)OCc1ccccc1)[C@@H](COCc1ccccc1)OCc1ccccc1 [Compound 1, 1,2,5,6-tetra-O-benzyl-D-mannitol]
- CC50 [1]: 15 µM
